# Measurements taken from US20230391792A1, “METHODS AND COMPOSITIONS FOR TARGETED PROTEIN DEGRADATION” (Ranok Therapeutics (Hangzhou) Co. Ltd., priority 2020, published 2023).
# Molecular target: T1, HSP90α protein (N-terminal) (Homo sapiens, UniProt P07900)
# T1 construct: purchased BPS Bioscience #50298
# Assay: HSP90α-binding fluorescent polarization (FP) assay, competition with BODIPY-labeled RNK04010
# Settings: probe RNK04010 (BODIPY-labeled) 5 nM, 25° C. 300 min
# Procedure: Binding of test compounds to HSP90α protein was measured by fluorescent polarization (FP) using the HSP90α (N-terminal) Assay Kit (BPS Bioscience, #50298), following the manufacturer's instructions, except as noted. Fluorescently labeled HSP90-binding compounds, either the provided FITC-geldanamycin (5 nM final concentration) or RNK04010, a triazolone-based HSP90-binding small molecule labeled with BODIPY through a piperizine-phenyl linker (5 nM final concentration) were employed. A 2.5-fold serial dilution of each test compound ranging from 20 μM to 5.2 nM was assayed for binding to HSP90α. After the final step of adding HSP90α protein to each assay well, plates were mixed by brief shaking, incubated at 25° C. for 120 min for FITC-geldanamycin or 300 min for RNK04010, and fluorescence was measured using a PerkinElmer EnVision Plate Reader.
# HSP90α-binding fluorescent polarization (FP) assays measuring competition with the fluorescently labeled HSP90 binders, FITC-geldanamycin or RNK04010 (BODIPY-labeled), were applied to assess the binding capabilities of CHAMP molecules to HSP90.
row,SMILES,IC50 [nM]
1,Cc1sc2c(c1C)C(c1ccc(Cl)cc1)=N[C@@H](CC(=O)N(C)[C@@H](C)c1ccc(CN3CCC(Cc4ccc(-n5c(O)nnc5-c5cc(C(C)C)c(O)cc5O)cc4)CC3)cc1)c1nnc(C)n1-2 [Compound 63],100 to 1000
2,Cc1sc2c(c1C)C(c1ccc(Cl)cc1)=N[C@@H](CC(=O)NCCOCCN[C@@H](C)C(=O)N[C@H](C(=O)N1CCC[C@H]1C(=O)Nc1snnc1-c1ccccc1)C1CCCCC1)c1nnc(C)n1-2 [Compound 167],> 1000
3,CCc1cc(-c2nnc(C(=O)NC3CC3)n2-c2ccc(CN3CCN(CC4CCN(C(=O)C[C@@H]5N=C(c6ccc(Cl)cc6)c6c(sc(C)c6C)-n6c(C)nnc65)CC4)CC3)cc2)c(O)cc1O [Compound 101],< 100
4,Cc1sc2c(c1C)C(c1ccc(Cl)cc1)=N[C@@H](CC(=O)NCc1ccc(CN3CCC(Cc4ccc(-n5c(O)nnc5-c5cc(C(C)C)c(O)cc5O)cc4)CC3)cc1)c1nnc(C)n1-2 [Compound 60],< 100
5,COc1cccc(-c2cc(C(=O)Nc3ccc(-c4ccc(OC5CCN(C(=O)C[C@@H]6N=C(c7ccc(Cl)cc7)c7c(sc(C)c7C)-n7c(C)nnc76)CC5)cc4O)cc3)ccc2OC)c1 [Compound 131],> 1000
6,Cc1sc2c(c1C)C(c1ccc(Cl)cc1)=N[C@@H](CC(=O)NCCOCCOCCOCCOc1ccc(Nc3cc(-n4nc(C(F)(F)F)c5c4CC(C)(C)CC5=O)ccc3C(N)=O)cc1)c1nnc(C)n1-2 [Compound 162],> 1000
7,COc1cccc(-c2cc(C(=O)Nc3ccc(-c4ccc(OC5CCN(C)CC5)cc4OCCN(C)C(=O)CNC(=O)C[C@@H]4N=C(c5ccc(Cl)cc5)c5c(sc(C)c5C)-n5c(C)nnc54)cc3)ccc2OC)c1 [Compound 83],> 1000
8,Cc1sc2c(c1C)C(c1ccc(Cl)cc1)=N[C@@H](CC(=O)N1CCN(Cc3ccc(-n4c(O)nnc4-c4cc(C(C)C)c(O)cc4O)cc3)[C@H](C)C1)c1nnc(C)n1-2 [Compound 106],100 to 1000
9,COc1cc(O)c(C(C)C)cc1-c1nnc(O)n1-c1ccc(CN2CCN(CC3CCN(C(=O)C[C@@H]4N=C(c5ccc(Cl)cc5)c5c(sc(C)c5C)-n5c(C)nnc54)CC3)CC2)cc1 [Compound 108],> 1000
10,CCCc1cc(-c2nnc(O)n2-c2ccc(CN3CCN(C(=O)C4CCN(c5ccc(Nc6ncc7c(n6)N(C)c6ccccc6C(=O)N7C)c(OCC)c5)CC4)CC3)cc2)c(O)cc1O [Compound 128],100 to 1000
11,Cc1sc2c(c1C)C(c1ccc(Cl)cc1)=N[C@@H](CC(=O)N1CCC(CN3CCN(Cc4ccc(-n5c(C(N)=O)nnc5-c5cc(C(C)C)c(O)cc5O)cc4)CC3)CC1)c1nnc(C)n1-2 [Compound 78],< 100
12,Cc1sc2c(c1C)C(c1ccc(Cl)cc1)=N[C@@H](CC(=O)N1CCC(CCN3CCC(Cc4ccc(-n5c(O)nnc5-c5cc(C(C)C)c(O)cc5O)cc4)CC3)CC1)c1nnc(C)n1-2 [Compound 55],< 100
13,CCc1cc(-c2nnc(C(=O)NC(CC)CC)n2-c2ccc(CN3CCN(CC4CCN(C(=O)C[C@@H]5N=C(c6ccc(Cl)cc6)c6c(sc(C)c6C)-n6c(C)nnc65)CC4)CC3)cc2)c(O)cc1O [Compound 103],100 to 1000
14,CCOc1cc(N2CCC(C(=O)NCc3ccc(-n4c(O)nnc4-c4ccc(O)cc4O)cc3)CC2)ccc1Nc1ncc2c(n1)N(C)c1ccccc1C(=O)N2C [Compound 119],> 1000
15,CCOc1cc(N2CCC(C(=O)NCCOCCNC(=O)O[C@H]3CC[C@H](Cc4cc(-n5nc(C)c6c5CC(C)(C)CC6=O)ccc4C(N)=O)CC3)CC2)ccc1N(CC)c1ncc2c(n1)N(C)c1ccccc1C(=O)N2C [Compound 151],> 1000
16,CCOc1cc(N2CCC(C(=O)N3CCN(CCOc4ccc(Nc5cc(-n6nc(C(F)(F)F)c7c6CC(C)(C)CC7=O)ccc5C(N)=O)cc4)CC3)CC2)ccc1Nc1ncc2c(n1)N(C)c1ccccc1C(=O)N2C [Compound 149],100 to 1000

row,SMILES,IC50 [nM]
1,CCc1cc(-c2nnc(C(=O)NC(C)C(F)(F)F)n2-c2ccc(CN3CCN(CC4CCN(C(=O)C[C@@H]5N=C(c6ccc(Cl)cc6)c6c(sc(C)c6C)-n6c(C)nnc65)CC4)CC3)cc2)c(O)cc1O (stereo partly shown) [Compound 105],100 to 1000
2,CCCc1cc(-c2nnc(C(=O)NCCN3CCCCC3)n2-c2ccc(CN3CCN(CC4CCN(C(=O)C[C@@H]5N=C(c6ccc(Cl)cc6)c6c(sc(C)c6C)-n6c(C)nnc65)CC4)CC3)cc2)c(O)cc1O [Compound 92],< 100
3,COc1cccc(-c2cc(C(=O)Nc3ccc(-c4ccc(OC5CCN(C(=O)CNC(=O)N[C@@H]6N=C(c7ccc(Cl)cc7)c7c(sc(C)c7C)-n7c(C)nnc76)CC5)cc4O)cc3)ccc2OC)c1 [Compound 132],> 1000
4,Cc1sc2c(c1C)C(c1ccc(Cl)cc1)=N[C@@H](CC(=O)N1CCC(Cc3ccc(CN(C)Cc4ccc(-n5c(C(=O)NCC(F)(F)F)nnc5-c5cc(C(C)C)c(O)cc5O)cc4)cn3)CC1)c1nnc(C)n1-2 [Compound 109],100 to 1000
5,CCc1cc(-c2nnc(C(=O)NCCN3CCCCC3)n2-c2ccc(CN3CCN(CC4CCN(C(=O)C[C@@H]5N=C(c6ccc(Cl)cc6)c6c(sc(C)c6C)-n6c(C)nnc65)CC4)CC3)cc2)c(O)cc1O [Compound 82],< 100
6,CCOc1cc(N2CCC(C(=O)NCc3ccc(-n4c(O)nnc4-c4cc(CC)c(O)cc4O)cc3F)CC2)ccc1Nc1ncc2c(n1)N(C)c1ccccc1C(=O)N2C [Compound 125],> 1000
7,CCOc1cc(N2CCC(C(=O)N3CCN(C(=O)O[C@H]4CC[C@H](Nc5cc(-n6nc(C(F)(F)F)c7c6CC(C)(C)CC7=O)ccc5C(N)=O)CC4)CC3)CC2)ccc1Nc1ncc2c(n1)N(C)c1ccccc1C(=O)N2C [Compound 152],> 1000
8,CCCc1cc(-c2nnc(O)n2-c2ccc(CNC(=O)C3CCN(c4ccc(Nc5ncc6c(n5)N(C)c5ccccc5C(=O)N6C)c(OCC)c4)CC3)cc2)c(O)cc1O [Compound 121],> 1000
9,Cc1cc(C(=O)N2Cc3ccc(CN4CCN(C(=O)C[C@@H]5N=C(c6ccc(Cl)cc6)c6c(sc(C)c6C)-n6c(C)nnc65)CC4)c(F)c3C2)c(O)cc1O [Compound 99],> 1000
10,CCNC(=O)c1nnc(-c2cc(CC)c(O)cc2O)n1-c1ccc(CN2CCN(CC3CCN(C(=O)C[C@@H]4N=C(c5ccc(Cl)cc5)c5c(sc(C)c5C)-n5c(C)nnc54)CC3)CC2)cc1 [Compound 59],< 100
11,Cc1sc2c(c1C)C(c1ccc(Cl)cc1)=N[C@@H](CC(=O)N1CCC(CN3CCN(Cc4ccc(-n5c(C(=O)NC(C)C)nnc5-c5cc(C(C)C)c(O)cc5O)cc4)CC3)CC1)c1nnc(C)n1-2 [Compound 77],100 to 1000
12,Cc1sc2c(c1C)C(c1ccc(Cl)cc1)=N[C@@H](CC(=O)N1CCC(CN3CCN(Cc4ccc(-n5c(C(=O)NC(C)C)nnc5-c5ccc(O)cc5O)cc4)CC3)CC1)c1nnc(C)n1-2 [Compound 91],< 100
13,Cc1sc2c(c1C)C(c1ccc(Cl)cc1)=N[C@@H](CC(=O)N1CCC(CN3CCN(Cc4ccc(-n5c(C(=O)NCCN6CCCCC6)nnc5-c5cc(C(C)C)c(O)cc5O)cc4)CC3)CC1)c1nnc(C)n1-2 [Compound 76],< 100
14,COc1cccc(-c2cc(C(=O)Nc3ccc(-c4ccc(OC5CCN(C)CC5)cc4COCN(C)CC[C@@H]4N=C(c5ccc(Cl)cc5)c5c(sc(C)c5C)-n5c(C)nnc54)cc3)ccc2OC)c1 [Compound 133],> 1000
15,CCOc1cc(N2CCC(C(=O)NCCCNC(=O)O[C@H]3CC[C@H](Nc4cc(-n5nc(C(F)(F)F)c6c5CC(C)(C)CC6=O)ccc4C(N)=O)CC3)CC2)ccc1Nc1ncc2c(n1)N(C)c1ccccc1C(=O)N2C [Compound 150],> 1000
